Read-outs that look alike come from different tables or passages of the source.
Target: T1, mTOR (Homo sapiens, UniProt P42345)
T1 construct: endogenous in cells; host or cells: Jurkat, clone E6-1 (ATCC TIB-152) cell lysate
Assay: mTOR kinobeads assay (competitive binding in Jurkat cell lysate, immunodetection)
Settings: kinobeads assay
Outline: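 IC50 derived from dose-response curves of mTOR captured on immobilized phenylmorpholin-chromen beads, detected by antibody dot blot with infrared fluorescence.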

[1] = Table 4, read-out: Inhibition values (IC50) mTor
[2] = Table 6, read-out: Inhibition values (IC50) mTOR

| IC50 [1] | IC50 [2] | Compound |
| --- | --- | --- |
| 100 to 1000 nM | 100 to 1000 nM | CCNC(=O)Nc1ccc(-c2nc3c(c(N4CCOC[C@@H]4C)n2)CN(C(=O)OC(C)(C)C)C3)cc1 [Example 1, (S)-tert-butyl 2-(4-(3-ethylureido)phenyl)-4-(3-methylmorpholino)-5H-pyrrolo[3,4-d]pyrimidine-6(7H)-carboxylate] |
| < 100 nM | < 100 nM | CC(=O)N1CCc2c(nc(-c3ccc(NC(=O)NC4CC4)cc3)nc2N2CCOC[C@@H]2C)C1 [Example 62, (S)-1-(4-(7-acetyl-4-(3-methylmorpholino)-5,6,7,8-tetrahydropyrido[3,4-d]pyrimidin-2-yl)phenyl)-3-cyclopropylurea] |
| – | 100 to 1000 nM | CCNC(=O)Nc1ccc(-c2nc3c(c(N4CCOC[C@@H]4C)n2)CN(CC(C)(C)C)C3)cc1 [Example 67, (S)-1-ethyl-3-(4-(4-(3-methylmorpholino)-6-neopentyl-6,7-dihydro-5H-pyrrolo[3,4-d]pyrimidin-2-yl)phenyl)urea] |
| – | 100 to 1000 nM | CCNC(=O)Nc1ccc(-c2nc3c(c(N4CCOC[C@@H]4C)n2)CN(CC(F)(F)F)C3)cc1 [Example 68, (S)-1-ethyl-3-(4-(4-(3-methylmorpholino)-6-(2,2,2-trifluoroethyl)-6,7-dihydro-5H-pyrrolo[3,4-d]pyrimidin-2-yl)phenyl)urea] |
| – | < 100 nM | CCNC(=O)Nc1ccc(-c2nc3c(c(N4CCOCC4)n2)CN(C(=O)OCC)C3)cc1 [Example 70, Ethyl 2-(4-(3-ethylureido)phenyl)-4-morpholino-5H-pyrrolo[3,4-d]pyrimidine-6(7H)-carboxylate] |
| – | < 100 nM | C[C@H]1COCCN1c1nc(-c2ccc(NC(N)=O)cc2)nc2c1CN(C)C2 [Example 71, (S)-1-(4-(6-methyl-4-(3-methylmorpholino)-6,7-dihydro-5H-pyrrolo[3,4-d]pyrimidin-2-yl)phenyl)urea] |
| – | < 100 nM | CCNC(=O)Nc1ccc(-c2nc3c(c(N4CCOC[C@@H]4C)n2)CN(C(C)C)C3)cc1 [Example 74, (S)-1-ethyl-3-(4-(6-isopropyl-4-(3-methylmorpholino)-6,7-dihydro-5H-pyrrolo[3,4-d]pyrimidin-2-yl)phenyl)urea] |
| – | 100 to 1000 nM | C[C@H]1COCCN1c1nc(-c2ccc(NC(=O)Nc3ccn(C)n3)cc2)nc2c1CN(C)C2 [Example 84, (S)-1-(1-methyl-1H-pyrazol-3-yl)-3-(4-(6-methyl-4-(3-methylmorpholino)-6,7-dihydro-5H-pyrrolo[3,4-d]pyrimidin-2-yl)phenyl)urea] |
| – | 100 to 1000 nM | CCNC(=O)Nc1ccc(-c2nc3c(c(N4CCOCC4)n2)CN(C(=O)C(C)(C)C)C3)cc1 [Example 100, 1-ethyl-3-(4-(4-morpholino-6-pivaloyl-6,7-dihydro-5H-pyrrolo[3,4-d]pyrimidin-2-yl)phenyl)urea] |
| – | 100 to 1000 nM | C[C@H]1COCCN1c1nc(-c2ccc(NC(=O)NC3CC3)cc2)nc2c1CN(CC(F)(F)F)C2 [Example 101, (S)-1-cyclopropyl-3-(4-(4-(3-methylmorpholino)-6-(2,2,2-trifluoroethyl)-6,7-dihydro-5H-pyrrolo[3,4-d]pyrimidin-2-yl)phenyl)urea] |
| – | 100 to 1000 nM | CCOC(=O)N1Cc2nc(-c3ccc(NC(=O)NCCO)c(F)c3)nc(N3CCOC[C@@H]3C)c2C1 [Example 104, (S)-ethyl-2-(3-fluoro-4-(3-(2-hydroxyethyl)ureido)phenyl)-4-(3-methylmorpholino)-5H-pyrrolo[3,4-d]pyrimidine-6(7H)-carboxylate] |
| – | 100 to 1000 nM | CCNC(=O)Nc1ncc(-c2nc3c(c(N4CCOC[C@@H]4C)n2)CCN(C)C3)s1 [Example 106, (S)-1-ethyl-3-(5-(7-methyl-4-(3-methylmorpholino)-5,6,7,8-tetrahydropyrido[3,4-d]pyrimidin-2-yl)thiazol-2-yl)urea] |
| – | 100 to 1000 nM | CCNC(=O)Nc1ccc(-c2nc3c(c(N4CCOC[C@@H]4C)n2)CN(C(=O)OCC)CC3)cc1 [Example 107, (S)-ethyl 2-(4-(3-ethylureido)phenyl)-4-(3-methylmorpholino)-7,8-dihydropyrido[4,3-d]pyrimidine-6(5H)-carboxylate] |
| – | 100 to 1000 nM | CCNC(=O)Nc1cc(F)c(-c2nc3c(c(N4CCOC[C@@H]4C)n2)CCN(C)C3)cc1F [Example 108, (S)-1-(2,5-difluoro-4-(7-methyl-4-(3-methylmorpholino)-5,6,7,8-tetrahydropyrido[3,4-d]pyrimidin-2-yl)phenyl)-3-ethylurea] |
| – | < 100 nM | CCOC(=O)N1Cc2nc(-c3ccc(NC(=O)NCCF)cc3)nc(N3CCOC[C@@H]3C)c2C1 [Example 120, (S)-ethyl 2-(4-(3-(2-fluoroethyl)ureido)phenyl)-4-(3-methylmorpholino)-5H-pyrrolo[3,4-d]pyrimidine-6(7H)-carboxylate] |
| – | < 100 nM | CCOC(=O)N1Cc2nc(-c3ccc(NC(=O)Nc4ccncc4)cc3)nc(N3CCOC[C@@H]3C)c2C1 [Example 121, (S)-ethyl 4-(3-methylmorpholino)-2-(4-(3-(pyridin-4-yl)ureido)phenyl)-5H-pyrrolo[3,4-d]pyrimidine-6(7H)-carboxylate] |
| – | 100 to 1000 nM | CCNC(=O)Nc1ccc(-c2nc3c(c(N4CCOC[C@@H]4C)n2)CN(C2CCN(C(=O)OC)CC2)C3)cc1F [Example 122, (S)-methyl 4-(2-(4-(3-ethylureido)-3-fluorophenyl)-4-(3-methylmorpholino)-5H-pyrrolo[3,4-d]pyrimidin-6(7H)-yl)piperidine-1-carboxylate] |

Continued, molecule first:

| Compound | IC50 [1] | IC50 [2] |
| --- | --- | --- |
| CCNC(=O)Nc1ccc(-c2nc3c(c(N4CCOC[C@@H]4C)n2)CCN(C(C)=O)C3)cc1 [Example 59, (S)-1-(4-(7-acetyl-4-(3-methylmorpholino)-5,6,7,8-tetrahydropyrido[3,4-d]pyrimidin-2-yl)phenyl)-3-ethylurea] | < 100 nM | < 100 nM |
| CC(C)CN1Cc2nc(-c3ccc(NC(=O)NC4CC4)cc3)nc(N3CCOC[C@@H]3C)c2C1 [Example 65, (S)-1-cyclopropyl-3-(4-(6-isobutyl-4-(3-methylmorpholino)-6,7-dihydro-5H-pyrrolo[3,4-d]pyrimidin-2-yl)phenyl)urea] | – | < 100 nM |
| CCNC(=O)Nc1ccc(-c2nc3c(c(N4CCOCC4)n2)CN(C)C3)cc1 [Example 69, 1-Ethyl-3-(4-(6-methyl-4-morpholino-6,7-dihydro-5H-pyrrolo[3,4-d]pyrimidin-2-yl)phenyl)urea] | – | < 100 nM |
| Cc1cc(NC(=O)Nc2ccc(-c3nc4c(c(N5CCOC[C@@H]5C)n3)CN(C)C4)cc2)no1 [Example 72, (S)-1-(4-(6-methyl-4-(3-methylmorpholino)-6,7-dihydro-5H-pyrrolo[3,4-d]pyrimidin-2-yl)phenyl)-3-(5-methylisoxazol-3-yl)urea] | – | 100 to 1000 nM |
| C[C@H]1COCCN1c1nc(-c2ccc(NC(=O)NCCO)cc2)nc2c1CN(C)C2 [Example 73, (S)-1-(2-hydroxyethyl)-3-(4-(6-methyl-4-(3-methylmorpholino)-6,7-dihydro-5H-pyrrolo[3,4-d]pyrimidin-2-yl)phenyl)urea] | – | < 100 nM |
| CCNC(=O)Nc1ccc(-c2nc3c(c(N4CCOC[C@@H]4C)n2)CCN(CC(C)C)C3)cc1.O=CO [Example 76, (S)-1-ethyl-3-(4-(7-isobutyl-4-(3-methylmorpholino)-5,6,7,8-tetrahydropyrido[3,4-d]pyrimidin-2-yl)phenyl)urea formate] | – | < 100 nM |
| CCNC(=O)Nc1ccc(-c2nc3c(c(N4CCOCC4)n2)CCN(C)C3)cc1 [Example 93, 1-ethyl-3-(4-(7-methyl-4-morpholino-5,6,7,8-tetrahydropyrido[3,4-d]pyrimidin-2-yl)phenyl)urea] | – | 100 to 1000 nM |
| CCNC(=O)Nc1ccc(-c2nc3c(c(N4CCOCC4)n2)CCN(C(=O)NCC)C3)cc1 [Example 94, N-ethyl-2-(4-(3-ethylureido)phenyl)-4-morpholino-5,6-dihydropyrido[3,4-d]pyrimidine-7(8H)-carboxamide] | – | 100 to 1000 nM |
| CCNC(=O)Nc1ccc(-c2nc3c(c(N4CCOCC4)n2)CCN(C(=O)OCC)C3)cc1 [Example 96, ethyl 2-(4-(3-ethylureido)phenyl)-4-morpholino-5,6-dihydropyrido[3,4-d]pyrimidine-7(8H)-carboxylate] | – | 100 to 1000 nM |
| CCNC(=O)Nc1ccc(-c2nc3c(c(N4CCOCC4)n2)CCN(C(C)=O)C3)cc1 [Example 97, 1-(4-(7-acetyl-4-morpholino-5,6,7,8-tetrahydropyrido[3,4-d]pyrimidin-2-yl)phenyl)-3-ethylurea] | – | < 100 nM |
| CCNC(=O)Nc1ccc(-c2nc3c(c(N4CCOCC4)n2)CCN(C(=O)C(C)(C)C)C3)cc1 [Example 98, 1-ethyl-3-(4-(4-morpholino-7-pivaloyl-5,6,7,8-tetrahydropyrido[3,4-d]pyrimidin-2-yl)phenyl)urea] | – | < 100 nM |
| CCNC(=O)Nc1ccc(-c2nc3c(c(N4CCOC[C@@H]4C)n2)CCN(C(=O)CO)C3)cc1 [Example 102, (S)-1-ethyl-3-(4-(7-(2-hydroxyacetyl)-4-(3-methylmorpholino)-5,6,7,8-tetrahydropyrido[3,4-d]pyrimidin-2-yl)phenyl)urea] | – | < 100 nM |
| CCOC(=O)N1Cc2nc(-c3ccc(NC(=O)NC4CC4)c(F)c3)nc(N3CCOC[C@@H]3C)c2C1 [Example 105, (S)-ethyl 2-(4-(3-cyclopropylureido)-3-fluorophenyl)-4-(3-methylmorpholino)-5H-pyrrolo[3,4-d]pyrimidine-6(7H)-carboxylate] | – | 100 to 1000 nM |
| C[C@H]1COCCN1c1nc(-c2ccc(NC(=O)NC3CC3)cc2)nc2c1CN(C(=O)C1CCOCC1)C2 [Example 129, (S)-1-cyclopropyl-3-(4-(4-(3-methylmorpholino)-6-(tetrahydro-2H-pyran-4-carbonyl)-6,7-dihydro-5H-pyrrolo[3,4-d]pyrimidin-2-yl)phenyl)urea] | – | < 100 nM |
